According to PubChem BioAssay (NCI):
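Compound exposure: 48 hours, 5 concentrations, 96-well plates. TGI denotes the concentration required for complete inhibition of growth.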

Legend:
Assay in all cases: inhibition of tumour cell growth, NCI panel, 48 h
[1] = test system: SNB-75 CNS
[2] = test system: PC-3 prostate
[3] = test system: NCI-H226 lung
[4] = test system: NCI/ADR-RES ovarian
[5] = test system: SNB-19 CNS
[6] = test system: OVCAR-8 ovarian
[7] = test system: U251 CNS
[8] = test system: NCI-H522 lung
[9] = test system: SR leukemia
[10] = test system: SN12C renal
[11] = test system: KM12 colon
[12] = test system: MOLT-4 leukemia
[13] = test system: HCC-2998 colon
[14] = test system: SF-295 CNS
[15] = test system: NCI-H460 lung
[16] = test system: MDA-MB-231 breast
[17] = test system: MDA-MB-435
[18] = test system: A498 renal
[19] = test system: HCT-15 colon
[20] = test system: MALME-3M melanoma
[21] = test system: CCRF-CEM leukemia
[22] = test system: NCI-H23 lung
[23] = test system: SK-MEL-2 melanoma
[24] = test system: DU-145 prostate
[25] = test system: HL-60(TB) leukemia
[26] = test system: MDA-N
[27] = test system: HS 578T breast
[28] = test system: HOP-62 NSCLC
[29] = test system: SK-MEL-28 melanoma
[30] = test system: K-562 leukemia
[31] = test system: OVCAR-3 ovarian
[32] = test system: RPMI-8226 leukemia
[33] = test system: HT29 colon
[34] = test system: HOP-92 NSCLC
[35] = test system: T-47D breast
[36] = test system: UO-31 renal
[37] = test system: SK-OV-3 ovarian
[38] = test system: RXF 393 renal
[39] = test system: UACC-62 melanoma
[40] = test system: CAKI-1 renal
[41] = test system: IGROV1 ovarian
[42] = test system: MCF7 breast
[43] = test system: HCT-116 colon
[44] = test system: BT-549 breast
[45] = test system: COLO 205 colon
[46] = test system: OVCAR-5 ovarian
[47] = test system: SK-MEL-5 melanoma
[48] = test system: M14 melanoma
[49] = test system: EKVX NSCLC
[50] = test system: SF-268 CNS
[51] = test system: OVCAR-4 ovarian
[52] = test system: SW-620 colon
[53] = test system: UACC-257 melanoma
[54] = test system: ACHN renal
[55] = test system: 786-0 renal
[56] = test system: LOX IMVI melanoma
[57] = test system: A549 NSCLC
[58] = test system: TK-10 renal
[59] = test system: SF-539 CNS

CN(C)C(=S)/N=C1\SC(=Nc2ccccc2)C(=Nc2ccccc2)N1c1ccc([N+](=O)[O-])cc1
TGI [1]: > 100 µM | TGI [2]: > 100 µM | TGI [3]: > 100 µM | TGI [4]: > 100 µM | TGI [5]: > 100 µM | TGI [6]: > 100 µM | TGI [7]: > 100 µM | TGI [8]: > 100 µM | TGI [9]: > 100 µM | TGI [10]: > 100 µM | TGI [11]: > 100 µM | TGI [12]: > 100 µM | TGI [13]: > 100 µM | TGI [14]: > 100 µM | TGI [15]: > 100 µM | TGI [16]: > 100 µM | TGI [17]: > 100 µM | TGI [18]: > 100 µM | TGI [19]: > 100 µM | TGI [20]: > 100 µM | TGI [21]: > 100 µM | TGI [22]: > 100 µM | TGI [23]: > 100 µM | TGI [24]: > 100 µM | TGI [25]: > 100 µM | TGI [26]: > 100 µM | TGI [27]: > 100 µM | TGI [28]: > 100 µM | TGI [29]: > 100 µM | TGI [30]: > 100 µM | TGI [31]: > 100 µM | TGI [32]: > 100 µM | TGI [33]: > 100 µM | TGI [34]: > 100 µM | TGI [35]: > 100 µM | TGI [36]: > 100 µM | TGI [37]: > 100 µM | TGI [38]: > 100 µM | TGI [39]: > 100 µM | TGI [40]: > 100 µM | TGI [41]: > 100 µM | TGI [42]: > 100 µM | TGI [43]: > 100 µM | TGI [44]: > 100 µM | TGI [45]: > 100 µM | TGI [46]: > 100 µM | TGI [47]: > 100 µM | TGI [48]: > 100 µM

CCCCCCCC/C=C(\Br)C(O)C(Br)Br (stereo not given)
TGI [1]: > 100 µM | TGI [49]: 92.9 µM | TGI [2]: > 100 µM | TGI [4]: 57.2 µM | TGI [5]: > 100 µM | TGI [50]: 53.1 µM | TGI [6]: 49.5 µM | TGI [7]: > 100 µM | TGI [51]: 85.9 µM | TGI [8]: 38.4 µM | TGI [9]: > 100 µM | TGI [52]: 34.2 µM | TGI [10]: 36.6 µM | TGI [11]: 59.6 µM | TGI [12]: > 100 µM | TGI [13]: 48 µM | TGI [53]: 76.1 µM | TGI [14]: 41.5 µM | TGI [15]: 86.8 µM | TGI [16]: > 100 µM | TGI [17]: 59.1 µM | TGI [18]: 68.1 µM | TGI [19]: 47.2 µM | TGI [20]: 43 µM | TGI [21]: 35.5 µM | TGI [54]: 51.9 µM | TGI [22]: 47.7 µM | TGI [23]: 63.7 µM | TGI [24]: > 100 µM | TGI [55]: 39.7 µM | TGI [26]: 54.1 µM | TGI [27]: 74.7 µM | TGI [28]: 47.6 µM | TGI [56]: 41.2 µM | TGI [57]: > 100 µM | TGI [29]: > 100 µM | TGI [30]: > 100 µM | TGI [31]: 34.8 µM | TGI [32]: > 100 µM | TGI [34]: 42.9 µM | TGI [35]: > 100 µM | TGI [36]: 38.8 µM | TGI [37]: 90.6 µM | TGI [38]: 37.8 µM | TGI [39]: 41.6 µM | TGI [40]: 63.7 µM | TGI [41]: 59.1 µM | TGI [42]: 98.3 µM | TGI [43]: > 100 µM | TGI [44]: 44.8 µM | TGI [45]: 41 µM | TGI [58]: > 100 µM | TGI [46]: 43.6 µM | TGI [47]: 34 µM | TGI [48]: 48.5 µM

Cc1cccc2c1CC1(Cc3ccccc3C1=O)C2=O (stereo not given)
TGI [1]: > 100 µM | TGI [49]: > 100 µM | TGI [2]: > 100 µM | TGI [3]: > 100 µM | TGI [4]: > 100 µM | TGI [5]: > 100 µM | TGI [50]: > 100 µM | TGI [6]: > 100 µM | TGI [7]: > 100 µM | TGI [51]: > 100 µM | TGI [8]: > 100 µM | TGI [9]: > 100 µM | TGI [52]: > 100 µM | TGI [10]: > 100 µM | TGI [11]: > 100 µM | TGI [12]: > 100 µM | TGI [13]: > 100 µM | TGI [53]: > 100 µM | TGI [14]: > 100 µM | TGI [15]: > 100 µM | TGI [16]: > 100 µM | TGI [17]: > 100 µM | TGI [18]: > 100 µM | TGI [19]: > 100 µM | TGI [20]: > 100 µM | TGI [21]: > 100 µM | TGI [54]: > 100 µM | TGI [22]: > 100 µM | TGI [24]: > 100 µM | TGI [55]: > 100 µM | TGI [25]: > 100 µM | TGI [26]: > 100 µM | TGI [27]: > 100 µM | TGI [28]: > 100 µM | TGI [56]: > 100 µM | TGI [57]: > 100 µM | TGI [29]: > 100 µM | TGI [30]: > 100 µM | TGI [31]: > 100 µM | TGI [32]: > 100 µM | TGI [33]: > 100 µM | TGI [34]: > 100 µM | TGI [35]: > 100 µM | TGI [36]: > 100 µM | TGI [37]: 99.6 µM | TGI [38]: > 100 µM | TGI [39]: > 100 µM | TGI [41]: > 100 µM | TGI [42]: > 100 µM | TGI [43]: > 100 µM | TGI [44]: 80.6 µM | TGI [45]: > 100 µM | TGI [58]: > 100 µM | TGI [46]: > 100 µM | TGI [59]: > 100 µM | TGI [47]: > 100 µM | TGI [48]: > 100 µM
